Source: patent US12600709B2, “Nonpeptide somatostatin type 5 receptor agonists and uses thereof” (Crinetics Pharmaceuticals, Inc., priority 2019, dated 2026)
Like-named read-outs stand apart in the source and are kept apart here.

Columns and labels:
[1] = biological target: T1, human somatostatin receptor subtype 5 (Homo sapiens, UniProt P35346); assay: cAMP assay for SST5R (inhibition of cAMP in CHO-K1 cells); assay type: cell-based; settings: for EC50: inhibition of cAMP via human SST5 receptor, read-out: SST5 potency; for Fold selectivity for SST5 vs SST2: class symbols, SST5 receptor over SST2 receptor
T1 construct: expressed in transfected cells
T1 sequence (P35346 whole entry): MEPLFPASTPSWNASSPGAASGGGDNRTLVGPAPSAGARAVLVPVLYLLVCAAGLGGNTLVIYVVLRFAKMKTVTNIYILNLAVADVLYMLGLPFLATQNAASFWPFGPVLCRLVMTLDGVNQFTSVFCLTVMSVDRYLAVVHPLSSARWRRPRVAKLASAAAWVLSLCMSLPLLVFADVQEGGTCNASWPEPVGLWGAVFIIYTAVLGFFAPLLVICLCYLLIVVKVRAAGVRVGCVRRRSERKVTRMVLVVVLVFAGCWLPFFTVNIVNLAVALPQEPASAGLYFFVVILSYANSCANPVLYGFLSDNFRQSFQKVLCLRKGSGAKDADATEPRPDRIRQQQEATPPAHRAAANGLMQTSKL
Outline: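 CHO-K1 cells stably expressing human SSTR5 were treated 20 min at 37 °C with compounds plus 1.6 μM NKH477 in HBSS, 0.5 mM HEPES pH 7.4, 0.1% BSA, 0.2 mM IBMX. Lysate cAMP measured by HTRF against a standard curve; EC50 from cAMP-versus-concentration plots.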

[2] = biological target: T2, human somatostatin receptor subtype 2 (Homo sapiens, UniProt P30874); assay: cAMP assay for SST2R (inhibition of cAMP in CHO-K1 cells); assay type: cell-based; settings: Table B; inhibition of cAMP via human SST2 receptor; read-out: SST2 potency
T2 construct: expressed in transfected cells
T2 sequence (P30874 whole entry): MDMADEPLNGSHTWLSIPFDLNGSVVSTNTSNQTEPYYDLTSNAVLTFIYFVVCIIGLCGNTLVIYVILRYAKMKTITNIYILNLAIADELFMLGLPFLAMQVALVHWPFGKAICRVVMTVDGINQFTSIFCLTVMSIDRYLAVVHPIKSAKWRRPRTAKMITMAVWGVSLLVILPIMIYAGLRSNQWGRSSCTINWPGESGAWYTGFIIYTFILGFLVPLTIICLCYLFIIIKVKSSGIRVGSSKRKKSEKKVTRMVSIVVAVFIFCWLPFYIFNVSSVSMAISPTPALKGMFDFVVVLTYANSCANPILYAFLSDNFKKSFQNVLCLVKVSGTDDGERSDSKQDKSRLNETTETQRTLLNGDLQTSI
Outline: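 Agonism read as decrease in NKH477 (1.6 μM)-stimulated cAMP: compounds applied 20 min, 37° C, with 0.2 mM IBMX, to CHO-K1 stably expressing human SSTR2. cAMP quantified in lysates by time-resolved fluorescence (HTRF kit, 1-24 h RT), standard-curve regression, then EC50.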

SMILES | EC50 ([1]; Table A) | Fold selectivity for SST5 vs SST2 ([1]; Table B) | EC50 ([1]; Table B) | EC50 [2]
C[C@H](NC(=O)c1cnc(C#N)c(-c2cc(F)cc(Cl)c2)c1N1CC[C@](C)(N)C1)c1ccccn1 [1-245, 4-[(3S)-3-amino-3-methylpyrrolidin-1-yl]-5-(3-chloro-5-fluorophenyl)-6-cyano-N-[(1 S)-1-(pyridin-2-yl)ethyl]pyridine-3-carboxamide] | < 10 nM | +++ (+++=>500) | < 10 nM | > 1000 nM
Cc1cccc(NC(=O)c2cncc(-c3ccnc(C#N)c3)c2N2CC[C@](C)(N)C2)c1 [1-5, 4-[(3S)-3-amino-3-methylpyrrolidin-1-yl]-2′-cyano-N-(3-methylphenyl)-[3,4′-bipyridine]-5-carboxamide] | < 10 nM | +++ (+++=>500) | < 10 nM | 100 to 1000 nM
Cc1ncc(C(=O)N[C@@H](C)C(F)(F)F)c(N2CC[C@](C)(N)C2)c1-c1cc(F)cc(OC(F)F)c1 [1-171, 4-[(3S)-3-amino-3-methylpyrrolidin-1-yl]-5-[3-(difluoromethoxy)-5-fluorophenyl]-6-methyl-N-[(2S)-1,1,1-trifluoropropan-2-yl]pyridine-3-carboxamide] | < 10 nM | +++ (+++=>500) | < 10 nM | 10 to 100 nM
COc1ncc(C(=O)N[C@@H](C)C(F)(F)F)c(N2CC[C@](C)(N)C2)c1-c1cccc2c1cnn2C [1-183, 4-[(3S)-3-amino-3-methylpyrrolidin-1-yl]-6-methoxy-5-(1-methyl-1H-indazol-4-yl)-N-[(2S)-1,1,1-trifluoropropan-2-yl]pyridine-3-carboxamide] | < 10 nM | +++ (+++=>500) | < 10 nM | > 1000 nM
C[C@H](NC(=O)c1cncc(-c2cccc3c2cnn3C)c1N1CC[C@](C)(N)C1)C1CC1 [1-162, 4-[(3S)-3-amino-3-methylpyrrolidin-1-yl]-N-[(1S)-1-cyclopropylethyl]-5-(1-methyl-1H-indazol-4-yl)pyridine-3-carboxamide] | < 10 nM | +++ (+++=>500) | < 10 nM | > 1000 nM
Cc1ncc(C(=O)N[C@@H](C)C2CC2)c(N2CC[C@](C)(N)C2)c1-c1ccnc(C(F)(F)F)c1 [1-159, 4-[(3S)-3-amino-3-methylpyrrolidin-1-yl]-N-[(1S)-1-cyclopropylethyl]-2-methyl-2′-(trifluoromethyl)-[3,4′-bipyridine]-5-carboxamide] | < 10 nM | +++ (+++=>500) | < 10 nM | > 1000 nM
N#Cc1ncc(C(=O)NC23CC(C2)C3)c(N2C[C@@H](N)[C@H](F)C2)c1-c1cc(F)cc(F)c1 [1-101, 4-[(3R,4R)-3-amino-4-fluoropyrrolidin-1-yl]-N-{bicyclo[1.1.1]pentan-1-yl}-6-cyano-5-(3,5-difluorophenyl)pyridine-3-carboxamide] | < 10 nM | +++ (+++=>500) | < 10 nM | > 1000 nM
C[C@]1(N)CCN(c2c(C(=O)NCc3ccon3)cnc(C#N)c2-c2cc(F)cc(F)c2)C1 [1-114, 4-[(3S)-3-amino-3-methylpyrrolidin-1-yl]-6-cyano-5-(3,5-difluorophenyl)-N-[(1,2-oxazol-3-yl)methyl]pyridine-3-carboxamide] | < 10 nM | +++ (+++=>500) | < 10 nM | > 1000 nM
C[C@H](NC(=O)c1cnc(OCC(F)F)c(-c2cc(F)cc(F)c2)c1N1CC[C@](C)(N)C1)C1CC1 [1-177, 4-[(3S)-3-amino-3-methylpyrrolidin-1-yl]-N-[(1S)-1-cyclopropylethyl]-6-(2,2-difluoroethoxy)-5-(3,5-difluorophenyl)pyridine-3-carboxamide] | < 10 nM | +++ (+++=>500) | < 10 nM | 10 to 100 nM
COc1ncc(C(=O)N[C@@H](C)C(F)(F)F)c(N2CC[C@](C)(N)C2)c1-c1cccc2c1OC(F)(F)O2 [1-184, 4-[(3S)-3-amino-3-methylpyrrolidin-1-yl]-5-(2,2-difluoro-2H-1,3-benzodioxol-4-yl)-6-methoxy-N-[(2S)-1,1,1-trifluoropropan-2-yl]pyridine-3-carboxamide] | < 10 nM | +++ (+++=>500) | < 10 nM | 100 to 1000 nM
Cc1ncc(C(=O)N[C@@H](C)C2CC2)c(N2CC[C@](C)(N)C2)c1-c1cc(F)cc(F)c1 [1-122, 4-[(3S)-3-amino-3-methylpyrrolidin-1-yl]-N-[(1S)-1-cyclopropylethyl]-5-(3,5-difluorophenyl)-6-methylpyridine-3-carboxamide] | < 10 nM | +++ (+++=>500) | < 10 nM | 100 to 1000 nM

Further lines, results first:

EC50 ([1]; Table A) | Fold selectivity for SST5 vs SST2 ([1]; Table B) | EC50 ([1]; Table B) | EC50 [2] | SMILES
< 10 nM | ++ (++=100 to 499) | < 10 nM | 100 to 1000 nM | C[C@]1(N)CCN(c2c(C(=O)NC3CC(F)(F)C3)cncc2-c2cc(F)cc(F)c2)C1 [1-30, 4-[(3S)-3-amino-3-methylpyrrolidin-1-yl]-N-(3,3-difluorocyclobutyl)-5-(3,5-difluorophenyl)pyridine-3-carboxamide]
< 10 nM | +++ (+++=>500) | < 10 nM | 100 to 1000 nM | N[C@H]1CCN(c2c(C(=O)NC3CCCCC3)cnc(C(F)(F)F)c2-c2cc(F)cc(F)c2)C1 [1-213, 4-[(3S)-3-aminopyrrolidin-1-yl]-N-cyclohexyl-5-(3,5-difluorophenyl)-6-(trifluoromethyl)pyridine-3-carboxamide]
< 10 nM | +++ (+++=>500) | < 10 nM | > 1000 nM | COc1ncc(C(=O)N[C@@H](C)C2CC2)c(N2CC[C@](C)(N)C2)c1-c1ccc(Cl)c(F)c1 [1-263, 4-[(3S)-3-amino-3-methylpyrrolidin-1-yl]-5-(4-chloro-3-fluorophenyl)-N-[(1S)-1-cyclopropylethyl]-6-methoxypyridine-3-carboxamide]
< 10 nM | +++ (+++=>500) | < 10 nM | > 1000 nM | COc1ncc(C(=O)N[C@@H](C)C2CC2)c(N2CC[C@](C)(N)C2)c1-c1cncc(Cl)c1 [1-167, 4-[(3S)-3-amino-3-methylpyrrolidin-1-yl]-5′-chloro-N-[(1S)-1-cyclopropylethyl]-2-methoxy-[3,3′-bipyridine]-5-carboxamide]
< 10 nM | ++ (++=100 to 499) | < 10 nM | 100 to 1000 nM | C[C@]1(N)CCN(c2c(C(=O)Nc3ccccc3F)cncc2-c2ccc(F)c(C#N)c2)C1 [1-4, 4-[(3S)-3-amino-3-methylpyrrolidin-1-yl]-5-(3-cyano-4-fluorophenyl)-N-(2-fluorophenyl)pyridine-3-carboxamide]
< 10 nM | ++ (++=100 to 499) | < 10 nM | 100 to 1000 nM | Cc1ncc(C(=O)N[C@@H](C)C(F)(F)F)c(N2CC[C@H](N)C2)c1-c1cc(F)cc(F)c1 [1-230, 4-[(3S)-3-aminopyrrolidin-1-yl]-5-(3,5-difluorophenyl)-6-methyl-N-[(2S)-1,1,1-trifluoropropan-2-yl]pyridine-3-carboxamide]
< 10 nM | +++ (+++=>500) | < 10 nM | 100 to 1000 nM | C[C@H](NC(=O)c1cnc(OCCO)c(-c2cc(F)cc(F)c2)c1N1CC[C@](C)(N)C1)C1CC1 [1-246, 4-[(3S)-3-amino-3-methylpyrrolidin-1-yl]-N-[(1S)-1-cyclopropylethyl]-5-(3,5-difluorophenyl)-6-(2-hydroxyethoxy)pyridine-3-carboxamide]
< 10 nM | +++ (+++=>500) | < 10 nM | 100 to 1000 nM | C[C@]1(N)CCN(c2c(C(=O)NC3CCC(F)(F)CC3)cnc(C#N)c2-c2cc(F)cc(F)c2)C1 [1-48, 4-[(3S)-3-amino-3-methylpyrrolidin-1-yl]-6-cyano-N-(4,4-difluorocyclohexyl)-5-(3,5-difluorophenyl)pyridine-3-carboxamide]
< 10 nM | +++ (+++=>500) | < 10 nM | 100 to 1000 nM | C[C@]1(N)CCN(c2c(C(=O)NCC3CC3)cnc(C#N)c2-c2cc(F)cc(F)c2)C1 [1-86, 4-[(3S)-3-amino-3-methylpyrrolidin-1-yl]-6-cyano-N-(cyclopropylmethyl)-5-(3,5-difluorophenyl)pyridine-3-carboxamide]
< 10 nM | +++ (+++=>500) | < 10 nM | 100 to 1000 nM | COc1ncc(C(=O)N[C@@H](C)C(F)(F)F)c(N2CC[C@](C)(N)C2)c1-c1ccc(Cl)c(F)c1 [1-260, 4-[(3S)-3-amino-3-methylpyrrolidin-1-yl]-5-(4-chloro-3-fluorophenyl)-6-methoxy-N-[(2S)-1,1,1-trifluoropropan-2-yl]pyridine-3-carboxamide]
< 10 nM | +++ (+++=>500) | < 10 nM | > 1000 nM | N#Cc1ncc(C(=O)NC23CC(C2)C3)c(N2CC[C@H](N)C2)c1-c1cc(F)cc(F)c1 [1-64, 4-[(3S)-3-aminopyrrolidin-1-yl]-N-{bicyclo[1.1.1]pentan-1-yl}-6-cyano-5-(3,5-difluorophenyl)pyridine-3-carboxamide]
